In patent EP1588698A2, “A process for the production and screening of materials for use in pharmaceutical aerosol formulations” (Thompson, James Anthony, priority 2004, dated 2005):

Columns and labels:
Type in all cases: physicochemical
[1] = Screening of salt derivative solubility in ethanol co-solvent
From the text: Solubility, of a drug salt derivative, to an appreciable extent, in solvents miscible with the propellant(s) provides a simple yet robust screening method.
The co-solvent used to screen derivative solubility and formulation approach was ethanol. […] A comprehensive list can be taken from texts such as the handbook of pharmaceutical excipients. Ethanol and water mixtures may be utilised. For solution aerosols a single phase is required when in the final formulation, but equally a suspension or emulsion may results and be utilised. As the model bronchodilator was a basic compound acids requisite for salt formation (from pKa values) were selected. […] The solvent necessary to facilitate dissolution is assumed to be of sufficient dielectric constant and an ideal solvent, although skilled practitioners will endeavor to try a range of solvents as formulation science is empirical. Other examples of suitable acids are acetate, benzenesulphonate, mesylate etc, and can be sought from any suitable text: Martindale 2005. […] Preferentially precipitated or solvated species may result from careful selection of reagents and forms of the active described. Preferentially precipitated or solvated compounds can be isolated either in bulk or in-situ for use.
Two non-limiting examples of use of the manufacture/ screening method are described below.

[2] = Stability of ethanol / HFA 134(a) pMDI formulations in plastic coated glass bottles; details: ethanol co-solvent in HFA 134(a); equivalent to 100mcg of free base per actuation
From the text: The solid compound is then isolated by a suitable method. Figures 3 and 4 indicates the solubility profiles of the respective salts synthesised. […] The mass of derivative was formulated at a level to give an equivalent to 100mcg of free base per actuation from the metering valve. Results from the formulations are depicted in figure 5 for the maleate salt 6 for the oleate salt and 7 to illustrate the precipitation technique by 7 controlled precipitation by the use of a second antisolvent: water on formulations of salbutamol maleate. […] Skilled artisans may endeavour to include surfactants or further co-solvents to enhance solubility. Such excipients may include but not be limited to conventional surfactants: Brij's Tween's lecithins polyvinylpyrollidone and those described in suitable pharmaceutical excipients handbooks. Figures 5, 6 (maleate salt side and plan views) and 7 (oleate salt arrows indicate crystals) illustrate 134(a) as an antisolvent as the drug […] from solution. The particle size of each drug is different, which leads to an embodiment of invention: use of derivative, co-solvent level, excipients level and antisolvent concentrations to precipitate actives to a desired particle size by careful moderation of the components. […] Formulations were then stored at specified temperatures and assessed periodically. […]

[3] = Cascade impactor particle size and deposition under controlled temperature and relative humidity
From the text: Formulations of salt derivatives whether prepared by the following method but any suitable method can be utilise. Plastic coated glass pMDI bottles (St Gobain, France) were weighed on a balance and tared after first undergoing a rinse with clean and dry compressed air. Drug was weighed accurately by difference in order to give an equivalent of 100mcg freebase as related to molecular mass of the salt and the same procedure repeated for absolute ethanol (Fisher scientific). A continuous […] on (Bespak, Kings Lynn, UK), according to manufacturers specifications and the bottle then sonicated (Decon FS 3006) for several minutes to induce complete dissolution of the drug. The bottle was then dried and once again tared on the balance. HFA 134(a) was subsequently charged through the valve using a Pamasol 2002 hand […] (DH Industries, Laindon, Essex, UK). The final formulation preparation was sonicated for a further several minutes for completeness. Formulations were then stored at specified temperatures and assessed periodically. All solutions were prepared in duplicate. 10% w/w ethanol : 90% w/w HFA 134(a) formulations were prepared. This is in no way intended to limit the extent of the formulations. Solutions were tested for particle size using a cascade impactor, which to that practitioner skilled is standardised method for determining particle size distributions, under conditions of thermal and environmental control. Figures 9-12 illustrate the invention from particle size results. […] It is therefore an embodiment to use derivatives to utilise derivatives not known to optimise deposition.

[4] = Morphology of particles deposited from pMDI (SEM, impactor plate); details: lab ambient, without a liquid air interface

Row | Substance | solubility in ethanol [1] | co-solvent level at which stable solution formulations achievable [2] [% w/w] | %Deposited at Location ACTUATOR ([3]; HT/HRH) [%] | %Deposited at Location FPF ([3]; HT/HRH) [%] | %Deposited at Location THROAT ([3]; HT/HRH) [%] | %Deposited at Location ACTUATOR ([3]; HT/LRH) [%] | %Deposited at Location FPF ([3]; HT/LRH) [%] | %Deposited at Location THROAT ([3]; HT/LRH) [%] | %Deposited at Location ACTUATOR ([3]; LT/HRH) [%] | %Deposited at Location FPF ([3]; LT/HRH) [%] | %Deposited at Location THROAT ([3]; LT/HRH) [%] | %Deposited at Location ACTUATOR ([3]; LT/LRH) [%] | %Deposited at Location FPF ([3]; LT/LRH) [%] | %Deposited at Location THROAT ([3]; LT/LRH) [%] | particle morphology on deposition [4] | behaviour of the salt in ethanol solution (stable or precipitates) ([1]; ethanol reaction solution)
1 | salbutamol fumarate | NB the Fumarate was insoluble in ethanol even though its only difference to the maleate was the trans arrangement of the carboxylic acid groups. | – | – | – | – | – | – | – | – | – | – | – | – | – | – | –
2 | Salbutamol cis-octadecenoate (Oleate) | – | 30 | 20.37 | 67.00 | 7.52 | 16.74 | 67.87 | 7.70 | 19.54 | 67.43 | 8.82 | 6.86 | 72.33 | 17.29 | spread as a surfactant | –
3 | Salbutamol cis-butenedioate (Maleate) | ethanol soluble | 15 | 27.35 | 57.42 | 11.78 | 22.00 | 63.24 | 12.74 | 16.33 | 52.88 | 25.96 | 8.97 | 42.76 | 44.24 | – | stable as a solution in ethanol, even at ultra low temperatures
